Our source for the IC50 values is patent US11492335B2, “Aryl or heteroaryl triazolone derivatives or salts thereof, or pharmaceutical compositions comprising the same” (YUHAN CORPORATION, priority 2018, dated 2022).

What all share (format): biochemical
The target in test [1] is T1, recombinant human MAO-A (monoamine oxidase-A) (Homo sapiens, UniProt P21397).
T1 construct: purchased Sigma-Aldrich
T1 sequence (P21397 1-527): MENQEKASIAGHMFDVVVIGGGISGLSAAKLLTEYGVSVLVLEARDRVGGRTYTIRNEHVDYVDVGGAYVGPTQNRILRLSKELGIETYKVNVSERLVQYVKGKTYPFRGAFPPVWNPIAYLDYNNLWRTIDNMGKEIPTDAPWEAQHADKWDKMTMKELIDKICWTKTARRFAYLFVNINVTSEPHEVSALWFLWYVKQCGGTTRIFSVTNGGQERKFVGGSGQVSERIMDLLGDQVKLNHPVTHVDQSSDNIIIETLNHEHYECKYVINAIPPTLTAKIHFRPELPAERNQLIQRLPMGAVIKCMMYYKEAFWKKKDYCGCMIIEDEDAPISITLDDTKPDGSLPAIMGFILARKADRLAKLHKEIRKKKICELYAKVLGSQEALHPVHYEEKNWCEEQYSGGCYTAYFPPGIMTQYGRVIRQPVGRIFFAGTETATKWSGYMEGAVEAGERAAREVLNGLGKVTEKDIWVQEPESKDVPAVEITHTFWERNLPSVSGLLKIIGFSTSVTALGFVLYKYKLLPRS
Kind of test: Activity on recombinant human MAO-A, Amplex Red method, 0.5 mM tyramine substrate. Particulars: read-out: Inhibitory Activity (IC50, nM) MAO-A. The procedure, abridged:
(§1)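 First, serially diluted compounds were incubated with recombinant enzyme in 50 mM sodium phosphate, pH 7.4, for 30 min at 37° C. Next, Amplex Red (200 uM), HRP (1 U/mL) and tyramine (0.5 mM, MAO-A) or benzylamine (1 mM, MAO-B) were added. Then fluorescence was monitored over 1-2 h and IC50 fitted.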

In test [2] the target is T2, recombinant human MAO-B (monoamine oxidase-B) (Homo sapiens, UniProt P27338).
T2 construct: purchased Sigma-Aldrich
T2 sequence (P27338 1-520): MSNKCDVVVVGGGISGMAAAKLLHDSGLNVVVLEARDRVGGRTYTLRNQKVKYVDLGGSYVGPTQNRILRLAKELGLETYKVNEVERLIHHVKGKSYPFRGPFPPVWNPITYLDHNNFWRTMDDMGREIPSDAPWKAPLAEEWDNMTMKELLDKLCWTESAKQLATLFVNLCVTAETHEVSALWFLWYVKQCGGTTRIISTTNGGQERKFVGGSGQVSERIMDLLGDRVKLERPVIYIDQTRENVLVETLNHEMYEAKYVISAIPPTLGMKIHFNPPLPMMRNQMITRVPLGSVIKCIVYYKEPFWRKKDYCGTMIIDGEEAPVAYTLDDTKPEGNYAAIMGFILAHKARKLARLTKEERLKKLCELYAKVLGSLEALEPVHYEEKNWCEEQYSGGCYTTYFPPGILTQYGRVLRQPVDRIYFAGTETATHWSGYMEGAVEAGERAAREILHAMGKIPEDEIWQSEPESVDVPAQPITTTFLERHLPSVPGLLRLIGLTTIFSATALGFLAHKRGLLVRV
As to the kind of experiment: Activity on recombinant human MAO-B, Amplex Red method, 1 mM benzylamine substrate. The note with it: read-out: Inhibitory Activity (IC50, nM) MAO-B. The procedure, abridged: as §1

The target in test [3] is T3, recombinant human VAP-1 (Homo sapiens, UniProt Q16853).
T3 construct: purchased R&D systems
T3 sequence (Q16853 1-763): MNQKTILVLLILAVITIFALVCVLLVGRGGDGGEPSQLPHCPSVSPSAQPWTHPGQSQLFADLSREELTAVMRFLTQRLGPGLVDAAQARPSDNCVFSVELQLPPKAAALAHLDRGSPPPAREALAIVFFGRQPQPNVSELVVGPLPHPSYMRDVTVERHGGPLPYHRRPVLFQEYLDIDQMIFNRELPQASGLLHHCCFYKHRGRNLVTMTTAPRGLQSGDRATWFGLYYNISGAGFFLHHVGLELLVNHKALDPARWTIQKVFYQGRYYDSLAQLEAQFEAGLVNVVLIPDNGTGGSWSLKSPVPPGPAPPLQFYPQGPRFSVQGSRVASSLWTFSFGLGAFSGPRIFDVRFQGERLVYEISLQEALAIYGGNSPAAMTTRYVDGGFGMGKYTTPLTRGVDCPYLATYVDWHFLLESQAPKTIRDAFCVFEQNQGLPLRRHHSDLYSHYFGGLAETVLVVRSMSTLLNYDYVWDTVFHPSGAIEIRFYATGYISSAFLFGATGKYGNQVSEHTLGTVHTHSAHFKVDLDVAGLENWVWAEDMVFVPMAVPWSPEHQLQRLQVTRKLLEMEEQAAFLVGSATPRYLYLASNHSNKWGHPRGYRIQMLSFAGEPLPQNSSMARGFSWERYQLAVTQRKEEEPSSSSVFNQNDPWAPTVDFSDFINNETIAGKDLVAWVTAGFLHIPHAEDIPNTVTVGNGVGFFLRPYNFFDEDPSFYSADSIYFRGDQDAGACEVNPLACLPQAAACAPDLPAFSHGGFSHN
As to the kind of experiment: Activity on recombinant human VAP-1, Amplex Red HRP-coupled hydrogen peroxide assay, benzylamine substrate. Particulars: recombinant human VAP-1, benzylamine substrate, read-out: Inhibitory Activity (IC50, nM) human VAP-1. The gist of the method:
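H2O2 generation from 1 mM benzylamine was coupled via 1 U/mL HRP to 200 uM Amplex Red; inhibitors, serially diluted 1:3 over 8 points with under 1% final DMSO, had been preincubated 30 min at 37 °C. IC50 from percentage drop in rate.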

Test [4] deals with T4, recombinant human DAO (diamine oxidase) (Homo sapiens, UniProt P19801).
T4 construct: purchased R&D systems
T4 sequence (P19801 20-751): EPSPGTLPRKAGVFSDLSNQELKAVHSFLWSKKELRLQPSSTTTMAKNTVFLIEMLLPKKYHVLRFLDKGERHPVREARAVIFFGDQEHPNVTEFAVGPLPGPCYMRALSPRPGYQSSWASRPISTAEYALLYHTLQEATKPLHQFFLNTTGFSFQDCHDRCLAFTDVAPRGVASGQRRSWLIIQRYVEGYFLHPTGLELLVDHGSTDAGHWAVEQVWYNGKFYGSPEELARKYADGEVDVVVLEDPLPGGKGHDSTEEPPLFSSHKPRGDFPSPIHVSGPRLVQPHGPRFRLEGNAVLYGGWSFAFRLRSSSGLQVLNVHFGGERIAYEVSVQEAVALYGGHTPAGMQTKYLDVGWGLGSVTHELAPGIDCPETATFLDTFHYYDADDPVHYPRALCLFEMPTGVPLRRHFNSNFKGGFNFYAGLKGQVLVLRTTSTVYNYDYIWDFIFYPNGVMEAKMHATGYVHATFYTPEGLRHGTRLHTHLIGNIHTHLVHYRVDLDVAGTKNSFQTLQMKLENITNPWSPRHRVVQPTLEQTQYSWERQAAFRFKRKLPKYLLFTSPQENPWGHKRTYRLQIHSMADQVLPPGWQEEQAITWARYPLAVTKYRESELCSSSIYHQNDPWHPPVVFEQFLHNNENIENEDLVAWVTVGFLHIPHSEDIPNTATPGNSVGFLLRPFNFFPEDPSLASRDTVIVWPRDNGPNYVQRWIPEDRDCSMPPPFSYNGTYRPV
Kind of test: Activity on recombinant human DAO, Amplex Red method, 1 mM putrescine substrate. Particulars: recombinant human DAO, read-out: Inhibitory Activity (IC50, nM) DAO. The gist of the method: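 Inhibition of recombinant human DAO (diamine oxidase, R&D systems) was assessed with the Amplex Red Hydrogen Peroxide Assay Kit. Hydrogen peroxide produced from 1 mM putrescine was detected through an HRP-coupled reaction that converts Amplex Red into fluorescent resorufin, read at 544 nm excitation and 590 nm emission. IC50 values came from four-parameter logistic fits in GraphPad Prism.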

[5] abbreviates: 1 mM putrescine, * = between 10 and 100 nM, ** = between 300 and 1000 nM.

The IC50 is the point on the concentration scale where inhibition reaches its midpoint.

Structures can show the parent of a compound that is named as a salt. Where two headings read alike, the source gives them in different places. Bounds are passed on as bounds.

For the molecule `NC/C(=C\F)Cn1ncn(-c2ncc(-c3cccc(-c4nnc[nH]4)c3)s2)c1=O` [Example 228, 2-[(2E)-2-(aminomethyl)-3-fluoroprop-2-en-1-yl]-4-{5-[3-(4H-1,2,4-triazol-3-yl)phenyl]-1,3-thiazol-2-yl}-2,4-dihydro-3H-1,2,4-triazol-3-one], the half-maximal inhibitory concentration (IC50) was more than 100000 nM in test [1] (0.5 mM tyramine substrate), 9.2 nM in test [2] (1 mM benzylamine substrate), 0.38 nM in test [3] and less than 100 nM in test [4] (1 mM putrescine substrate).

On to `Cc1cc(-c2ccc(N3CCNCC3)nc2)cnc1-n1cnn(C/C(=C/F)CN)c1=O` [Example 259, 2-[(E)-2-(aminomethyl)-3-fluoro-allyl]-4-[3-methyl-5-(6-piperazin-1-yl-3-pyridyl)-2-pyridyl]-1,2,4-triazol-3-one], for which the IC50 is more than 100000 nM in test [1] (0.5 mM tyramine substrate), more than 100000 nM in test [2] (1 mM benzylamine substrate), 1.4 nM in test [3] and 29000 nM in test [4] (1 mM putrescine substrate).

With `CN(C)c1cccc(-c2cccc(-n3cnn(C/C(=C/F)CN)c3=O)n2)c1` [Example 174, 2-[(2E)-2-(aminomethyl)-3-fluoroprop-2-en-1-yl]-4-{6-[3-(dimethylamino)phenyl]pyridin-2-yl}-2,4-dihydro-3H-1,2,4-triazol-3-one hydrochloride], the IC50 was more than 100000 nM in test [1] (0.5 mM tyramine substrate), 710 nM in test [2] (1 mM benzylamine substrate), 2.2 nM in test [3] and 1100 nM in test [4] (1 mM putrescine substrate).

Turning to `NC/C(=C\F)Cn1ncn(-c2ccc(-c3ccc4nonc4c3)cc2F)c1=O` [Example 46, 2-[(2E)-2-(aminomethyl)-3-fluoroprop-2-en-1-yl]-4-[4-(2,1,3-benzooxadiazol-5-yl)-2-fluorophenyl]-2,4-dihydro-3H-1,2,4-triazol-3-one hydrochloride], the IC50 in test [1] (0.5 mM tyramine) was 120 nM; in test [2] (1 mM benzylamine), less than 10 nM; in test [3] (30 min preincubation at 37° C.) it was 0.32 nM; in test [4] (setting [5]) it was 0.76 nM.

`CC(=O)Nc1ccc(-c2cccc(-n3cnn(C/C(=C/F)CN)c3=O)n2)cc1` [Example 175, N-[4-(6-{1-[(2E)-2-(aminomethyl)-3-fluoroprop-2-en-1-yl]-5-oxo-1,5-dihydro-4H-1,2,4-triazol-4-yl}pyridin-2-yl)phenyl]acetamide]: the IC50 was 1470 nM in test [1] (0.5 mM tyramine substrate), more than 10000 nM in test [2] (1 mM benzylamine substrate), 0.44 nM in test [3] and less than 30 nM in test [4] (1 mM putrescine substrate).

Regarding `Cn1nc(C(F)(F)F)cc1-c1cccc(-n2cnn(C/C(=C/F)CN)c2=O)n1` [Example 192, 2-[(2E)-2-(aminomethyl)-3-fluoroprop-2-en-1-yl]-4-{6-[1-methyl-3-(trifluoromethyl)-1H-pyrazol-5-yl]pyridin-2-yl}-2,4-dihydro-3H-1,2,4-triazol-3-one hydrochloride], the 50% inhibitory concentration (IC50) was more than 100000 nM in test [1] (0.5 mM tyramine substrate), 250 nM in test [2] (1 mM benzylamine substrate), 1.4 nM in test [3] and 0.4 nM in test [4] (1 mM putrescine substrate).

With `CC(C)c1nc(-c2ccc(-c3cccc(-n4cnn(C/C(=C/F)CN)c4=O)n3)cc2)no1` [Example 180, 2-[(2E)-2-(aminomethyl)-3-fluoroprop-2-en-1-yl]-4-(6-{4-[5-(propan-2-yl)-1,2,4-oxadiazol-3-yl]phenyl}pyridin-2-yl)-2,4-dihydro-3H-1,2,4-triazol-3-one], the IC50 worked out at 120000 nM in test [1] (0.5 mM tyramine substrate), 180 nM in test [2] (1 mM benzylamine substrate), 2.8 nM in test [3] and 1.4 nM in test [4] (1 mM putrescine substrate).

On to `COc1ccc(-c2ccc(C)c(-n3cnn(C/C(=C/F)CN)c3=O)n2)cn1` [Example 212, 2-[(2E)-2-(aminomethyl)-3-fluoroprop-2-en-1-yl]-4-(6′-methoxy-5-methyl-2,3′-bipyridin-6-yl)-2,4-dihydro-3H-1,2,4-triazol-3-one hydrochloride], for which the IC50 is more than 100000 nM in test [1] (0.5 mM tyramine substrate), more than 10000 nM in test [2] (1 mM benzylamine substrate), 45 nM in test [3] and 2200 nM in test [4] (1 mM putrescine substrate).

In the case of `CC(=O)Nc1ccc(-c2ccc(-n3cnn(C/C(=C\F)CN)c3=O)nc2)cc1` [Example 130, N-[4-(6-{1-[(2Z)-2-(aminomethyl)-3-fluoroprop-2-en-1-yl]-5-oxo-1,5-dihydro-4H-1,2,4-triazol-4-yl}pyridin-3-yl)phenyl]acetamide hydrochloride], the IC50 in test [1] (0.5 mM tyramine) is 26000 nM; in test [2] (1 mM benzylamine), 20 nM; in test [3] (30 min preincubation at 37° C.), 0.39 nM; in test [4] (setting [5]), 1 to 10 nM.

Take `NC/C(=C\F)Cn1ncn(-c2cccc(-c3ccc(C(=O)N4CCOCC4)cc3)c2)c1=O` [Example 78, 2-[(2E)-2-(aminomethyl)-3-fluoroprop-2-en-1-yl]-4-[4′-(morpholin-4-ylcarbonyl)biphenyl-3-yl]-2,4-dihydro-3H-1,2,4-triazol-3-one hydrochloride]: the IC50 is more than 100000 nM in test [1] (0.5 mM tyramine), more than 10000 nM in test [2] (1 mM benzylamine), 1 nM in test [3] (30 min preincubation at 37° C.) and 0.2 nM in test [4] (setting [5]).
